From paper PMC7382501 (Nature Communications, 2020) come the findings set out here.

One assay addresses FasRL106F (Mycobacterium tuberculosis, UniProt O05858, L106F). In kind it is biochemical.
Another assay deals with FasRLVL (Mycobacterium tuberculosis, UniProt O05858, L106F/L185F/V163F). In kind it is biochemical.
Another assay has as its target FasRF123A (Mycobacterium tuberculosis, UniProt O05858, F123A). In kind it is binding.

With `CCCCCCCCCCCCCCCCCCCC(=O)SCCNC(=O)CCNC(=O)[C@H](O)C(C)(C)COP(=O)(O)OP(=O)(O)OC[C@H]1O[C@@H](n2cnc3c(N)ncnc32)[C@H](O)[C@@H]1OP(=O)(O)O` [C20-CoA, arachidoyl-CoA], the “acyl-CoA concentration at which the protein–DNA complex dissociates” value at FasRL106F was > 4 µM. Further, the “protein–DNA complex in the presence of ligand” value at FasRLVL is “remained bound to DNA”. At FasRF123A, the “SPR association of FasRF123A to C20-CoA compared with FasRwt” value is on record as “comparable association kinetics”.
